Values after ≈ are worked out from the molar mass of the structure shown.

We go through 4 compounds from patent US12065429B2, “Small molecule modulators of IL-17” (LEO Pharma A/S, priority 2022, dated 2024).

One data set concerns the target T1, recombinant IL-17AA (Homo sapiens, UniProt Q16552).
T1 construct: purchased R&D Systems 7955-IL
T1 sequence (Q16552 24-155): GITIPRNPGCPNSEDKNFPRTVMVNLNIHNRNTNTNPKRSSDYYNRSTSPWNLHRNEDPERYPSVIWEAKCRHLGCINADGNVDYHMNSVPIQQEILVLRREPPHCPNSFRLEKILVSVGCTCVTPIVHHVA
Briefly: Inhibition of recombinant IL-17AA-induced SEAP reporter gene activity in HEK-Blue IL-17 cells. To be noted: recombinant IL-17A 2 ng/ml, overnight. It counts as cell-based. The protocol:
Example 62: Inhibition of Recombinant IL-17AA-Induced SEAP Reporter Gene Activity in HEK-Blue™ IL-17 Cells
The assay was run according to the protocol provided by InvivoGen. Briefly, the HEK-Blue™ IL-17 cells (Invivogen, cat #hkb-il17) were suspended in the complete culture medium and seeded in a 96 well plate in a volume of 80 μl in a density of 50,000 cells per well the day before the assay. 10 μl of a solution of the test compounds were added in a serial gradient dilution to the cells followed by the addition of 10 μl IL-17A (R&D Systems cat #7955-IL) in a final concentration of 2 ng/ml. The plate was incubated overnight. The QUANTI-Blue™ solution was used to determine the SEAP activity; 180 μl QUANTI-Blue™ solution and 20 μl of the supernatant from the cell plate were mixed and incubated for 1 hour at 37 degrees Celsius. SEAP levels were measured using a spectrophotometer at 650 nm.

Data set [1] in a line: Human liver microsome (HLM) clearance assay. It counts as in vitro ADME. The note with it: human liver microsomes 0.5 mg/mL, NADPH 1 mM, 0.5 μM compound, 40 min. The method, then:
Example 63: Human Liver Microsome (HLM) Clearance Assay
Samples were taken out before addition of NADPH, and at 5, 10, 20 and 40 minutes thereafter and protein precipitation using cold acetonitrile with added internal standard was performed prior to centrifugation and sample analysis using compound specific LCMS/MS methods. Control incubations in buffer and without NADPH were performed in the same manner. Compound depletion was determined and apparent clearance (CLapp) was calculated.
In general terms: Microsomes from liver hold many membrane-bound enzymes, among them those of drug oxidation.

The next data set is described as follows: Solubility assay. It counts as physicochemical. To be noted: 0.067 M phosphate buffer pH 6.5, 24 hours shaking, from 10 mM DMSO stock; for solubility at 24 h: aqueous buffer, kinetic from dmso stock. The method, then:
After centrifugation, the supernatant was analyzed by HPLC-UV. The solubility was defined as the concentration of the test substance in the selected solvent. It was determined by correlation with an external standard calibration curve.

With `Cc1cc(-c2ccc(NC(=O)[C@@H](NC(=O)c3ccnn3C(C)C)C(C3CC3)C3CC3)nc2F)c(C)[n+]([O-])c1` [Example 3, N-[(1S)-1-(dicyclopropylmethyl)-2-[[5-(2,5-dimethyl-1-oxido-pyridin-1-ium-3-yl)-6-fluoro-2-pyridyl]amino]-2-oxo-ethyl]-2-isopropyl-pyrazole-3-carboxamide], the EC50 at recombinant IL-17AA came to 17 nM. Moreover, the “HLM Clapp” value in data set [1] is recorded as <8 mL/min/kg. This compound also returned a solubility at 24 h in the data set “Solubility assay” of 45 µg/mL (≈ 86.4 µM).
For `Cc1c(-c2ccc(NC(=O)[C@@H](NC(=O)c3ccnn3C(C)C)C(C3CC3)C3CC3)nc2F)cc(S(C)(=O)=O)c[n+]1[O-]` [Example 58, N-[(1S)-1-(dicyclopropylmethyl)-2-[[6-fluoro-5-(2-methyl-5-methylsulfonyl-1-oxido-pyridin-1-ium-3-yl)-2-pyridyl]amino]-2-oxo-ethyl]-2-isopropyl-pyrazole-3-carboxamide] the same measures were 100 nM, 10 mL/min/kg and 14 µg/mL (≈ 23.9 µM).
In the case of `COc1cc(-c2ccc(NC(=O)[C@@H](NC(=O)c3ccnn3C(C)C)C(C3CC3)C3CC3)nc2F)c(C)[n+]([O-])c1` [Example 1, N-[(1S)-1-(dicyclopropylmethyl)-2-[[6-fluoro-5-(5-methoxy-2-methyl-1-oxido-pyridin-1-ium-3-yl)-2-pyridyl]amino]-2-oxo-ethyl]-2-isopropyl-pyrazole-3-carboxamide], the EC50 on recombinant IL-17AA came to 11 nM. For the same compound, in data set [1], the “HLM Clapp” value is reported as 12 mL/min/kg. In “Solubility assay”, this compound had a solubility at 24 h of 29 µg/mL (≈ 54 µM).
As for `Cc1cc[n+]([O-])c(C)c1-c1ccc(NC(=O)[C@@H](NC(=O)c2ccnn2C(C)C)C(C2CC2)C2CC2)nc1Cl` (single isomer, unassigned) [Example 57], the 50% effective concentration (EC50) at recombinant IL-17AA worked out at 740 nM. Moreover, in data set [1], the “HLM Clapp” value is recorded as 18 mL/min/kg. In addition, the “Solubility at pH 6.5” value in “Solubility assay” was <1 μg/mL.

What is called EC50 is the concentration that produces a half-maximal response. What is called solubility is how much of the substance goes into solution per volume. A lower solubility goes with little dissolved substance. Usually Solubility stands for the concentration that dissolves in the medium under given conditions. The low end stands for a poorly soluble substance, the high end for a readily soluble substance.
